Experimental data taken from US9670227B2, “Thienopyrimidine derivatives, a process for their preparation and pharmaceutical compositions containing them” (LES LABORATOIRES SERVIER, priority 2013, dated 2017).
Read-outs that look alike come from different tables or passages of the source.

Tests used:
[1] = system: H929 multiple myeloma tumour line; test: In vitro cytotoxicity, Microculture Tetrazolium Assay; assay type: cell-based; details: H929 cells, 48 hours exposure, MTT, read-out: IC50 (μM) MTT H929
Experimental: The cytotoxicity studies were carried out on the H929 multiple myeloma tumour line.
The cells are distributed onto microplates and exposed to the test compounds for 48 hours.

Mcl-1 protein = Mcl-1 protein (UniProtKB primary accession number: Q07820) (Homo sapiens, UniProt Q07820); test: Inhibition of Mcl-1 by fluorescence polarisation, Method 1; assay type: binding; details: read-out: IC50 (M) Mcl-1 FP
Procedure, shortened: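 Buffer of 10 mM HEPES pH 7.4 with 150 mM NaCl and 0.05% Tween 20 held 5 nM Mcl-1 and 1 nM fluorescein-tagged ligand (final). Compounds were tested as 11-point serial dilutions at 5% final DMSO, and binding was read by FP.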

[2] = fluorescence polarisation, Method 1, or Method 2
[3] = fluorescence polarisation test, Method 2 values are underlined in the patent (underlining not visible here)

Mcl-1 protein, sequence (Q07820 whole entry): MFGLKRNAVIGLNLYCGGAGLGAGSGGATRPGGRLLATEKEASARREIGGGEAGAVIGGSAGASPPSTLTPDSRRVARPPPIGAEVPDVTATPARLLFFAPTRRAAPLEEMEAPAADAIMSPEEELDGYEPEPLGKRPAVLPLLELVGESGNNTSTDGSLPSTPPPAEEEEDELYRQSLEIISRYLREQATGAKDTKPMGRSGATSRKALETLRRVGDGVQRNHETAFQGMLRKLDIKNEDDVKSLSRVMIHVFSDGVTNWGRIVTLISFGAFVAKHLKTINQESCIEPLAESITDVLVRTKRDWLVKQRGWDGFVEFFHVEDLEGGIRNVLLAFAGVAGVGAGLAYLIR

Compound	IC50 ([1]; Homo sapiens, NCI-H929, 48 h)	IC50 (Mcl-1 protein; [2])	IC50 (Mcl-1 protein; [3])	IC50 [1]
COCC#Cc1ccccc1CC(Oc1ncnc2sc(-c3ccc(F)cc3)c(-c3ccc(OCCN4CCN(C)CC4)c(Cl)c3C)c12)C(=O)O [Example 656, (2R)-2-{[(5Sa)-5-{3-chloro-2-methyl-4-[2-(4-methylpiperazin-1-yl)ethoxy]phenyl}-6-(4-fluorophenyl)thieno[2,3-d]pyrimidin-4-yl]oxy}-3-[2-(3-methoxyprop-1-yn-1-yl)phenyl]propanoic acid]	0.523 µM	6.1e-08 M	–	–
Cc1c(-c2c(-c3ccco3)sc3ncnc(OC(Cc4ccccc4OC(C)C)C(=O)O)c23)ccc(OCCN2CCN(C)CC2)c1Cl [Example 210, (2R)-2-{[(5Sa)-5-{3-chloro-2-methyl-4-[2-(4-methylpiperazin-1-yl)ethoxy]phenyl}-6-(furan-2-yl)thieno[2,3-d]pyrimidin-4-yl]oxy}-3-[2-(propan-2-yloxy)phenyl]propanoic acid]	0.406 µM	–	1e-08 M	–
Cc1cc(-c2nccc(COc3ccccc3C[C@@H](Oc3ncnc4sc(-c5ccc(F)cc5)c(-c5ccc(OCCN6CCN(C)CC6)c(Cl)c5C)c34)C(=O)O)n2)cnc1C [Example 732, (2R)-2-{[(5Sa)-5-{3-chloro-2-methyl-4-[2-(4-methylpiperazin-1-yl)ethoxy]phenyl}-6-(4-fluorophenyl)thieno[2,3-d]pyrimidin-4-yl]oxy}-3-(2-{[2-(5,6-dimethylpyridin-3-yl)pyrimidin-4-yl]methoxy}phenyl)propanoic acid]	–	1.27e-09 M	–	0.013 µM
CCC#Cc1sc2ncnc(OC(Cc3ccccc3OCc3ccnn3CCCC)C(=O)O)c2c1-c1ccc(OCCN2CCN(C)CC2)c(Cl)c1C [Example 612, (2R)-3-{2-[(1-butyl-1H-pyrazol-5-yl)methoxy]phenyl}-2-{[6-(but-1-yn-1-yl)-(5Sa)-5-{3-chloro-2-methyl-4-[2-(4-methylpiperazin-1-yl)ethoxy]phenyl}thieno[2,3-d]pyrimidin-4-yl]oxy}propanoic acid]	0.02 µM	3.5e-09 M	–	–
Cc1c(-c2c(-c3ccc(F)cc3)sc3ncnc(OC(Cc4ccccc4OCc4ccnn4C(C)C)C(=O)O)c23)ccc(OCCN(C)C)c1Cl [Example 752, (2R)-2-{[(5Sa)-5-{3-chloro-4-[2-(dimethylamino)ethoxy]-2-methylphenyl}-6-(4-fluorophenyl)thieno[2,3-d]pyrimidin-4-yl]oxy}-3-(2-{[1-(propan-2-yl)-1H-pyrazol-5-yl]methoxy}phenyl)propanoic acid]	0.084 µM	5.5e-09 M	–	–
Cc1c(-c2c(Br)sc3ncnc(OC(Cc4ccccc4)C(=O)O)c23)ccc(OCCN2CCN(C)CC2)c1Cl [Example 518, (2R)-2-[(6-bromo-(5Sa)-5-{3-chloro-2-methyl-4-[2-(4-methylpiperazin-1-yl)ethoxy]phenyl}thieno[2,3-d]pyrimidin-4-yl)oxy]-3-phenylpropanoic acid]	9.18 µM	3.5e-08 M	–	–
Cc1c(-c2c(-c3ccc(F)cc3)sc3ncnc(OC(Cc4ccccc4OCc4ccn(CC5CCCCC5)n4)C(=O)O)c23)ccc(OCCN2CCN(C)CC2)c1Cl [Example 15, (2R)-2-{[(5Sa)-5-{3-chloro-2-methyl-4-[2-(4-methylpiperazin-1-yl)ethoxy]phenyl}-6-(4-fluorophenyl)thieno[2,3-d]pyrimidin-4-yl]oxy}-3-(2-{[1-(cyclohexylmethyl)-1H-pyrazol-3-yl]methoxy}phenyl)propanoic acid]	0.494 µM	–	3.7e-08 M	–
CCCCNC(=O)COc1ccccc1CC(Oc1ncnc2sc(-c3ccc(F)o3)c(-c3ccc(OCCN4CCN(C)CC4)c(Cl)c3C)c12)C(=O)O [Example 156, (2R)-3-{2-[2-(butylamino)-2-oxoethoxy]phenyl}-2-{[(5Sa)-5-{3-chloro-2-methyl-4-[2-(4-methylpiperazin-1-yl)ethoxy]phenyl}-6-(5-fluorofuran-2-yl)thieno[2,3-d]pyrimidin-4-yl]oxy}propanoic acid]	0.092 µM	–	7e-09 M	–
COCCOc1ccccc1CC(Oc1ncnc2sc(-c3ccco3)c(-c3ccc(OCCN4CCN(C(C)C)CC4)c(Cl)c3C)c12)C(=O)O [Example 671, (2R)-2-{[(5Sa)-5-(3-chloro-2-methyl-4-{2-[4-(propan-2-yl)piperazin-1-yl]ethoxy}phenyl)-6-(furan-2-yl)thieno[2,3-d]pyrimidin-4-yl]oxy}-3-[2-(2-methoxyethoxy)phenyl]propanoic acid]	0.107 µM	6.9e-09 M	–	–
COc1ccccc1CC(Oc1ncnc2sc(-c3ccc(C#N)o3)c(-c3ccc(OCCN4CCN(C)CC4)c(Cl)c3C)c12)C(=O)O [Example 579, (2R)-2-{[(5Sa)-5-{3-chloro-2-methyl-4-[2-(4-methylpiperazin-1-yl)ethoxy]phenyl}-6-(5-cyanofuran-2-yl)thieno[2,3-d]pyrimidin-4-yl]oxy}-3-(2-methoxyphenyl)propanoic acid]	0.463 µM	8.5e-09 M	–	–
Cc1c(-c2c(-c3ccco3)sc3ncnc(OC(Cc4ccccc4OCc4ccccn4)C(=O)O)c23)ccc(OCCN2CCN(C)CC2)c1Cl [Example 241, (2R)-2-{[(5Sa)-5-{3-chloro-2-methyl-4-[2-(4-methylpiperazin-1-yl)ethoxy]phenyl}-6-(furan-2-yl)thieno[2,3-d]pyrimidin-4-yl]oxy}-3-[2-(pyridin-2-ylmethoxy)phenyl]propanoic acid]	0.074 µM	–	5.5e-09 M	–
COc1ccccc1-c1nccc(COc2ccccc2CC(Oc2ncnc3sc(-c4ccc(Oc5ccccc5)cc4)c(-c4ccc(OCCN5CCN(C)CC5)c(Cl)c4C)c23)C(=O)O)n1 (single isomer, unassigned) [Example 759]	0.054 µM	9.06e-09 M	–	–
Cc1c(-c2c(-c3ccc(F)cc3)sc3ncnc(OC(Cc4ccccc4OCc4ccnc(-c5ccncc5)n4)C(=O)O)c23)ccc(OCCN(C)C)c1Cl [Example 128, (2R)-2-{[(5Sa)-5-{3-chloro-4-[2-(dimethylamino)ethoxy]-2-methylphenyl}-6-(4-fluorophenyl)thieno[2,3-d]pyrimidin-4-yl]oxy}-3-(2-{[2-(pyridin-4-yl)pyrimidin-4-yl]methoxy}phenyl)propanoic acid]	0.018 µM	–	4e-09 M	–
Cc1c(-c2c(-c3ccco3)sc3ncnc(O[C@H](Cc4ccccc4OCc4cc(-c5ccccc5)ncn4)C(=O)O)c23)ccc(OCCN2CCN(C)CC2)c1Cl [Example 224, (2R)-2-{[(5Sa)-5-{3-chloro-2-methyl-4-[2-(4-methylpiperazin-1-yl)ethoxy]phenyl}-6-(furan-2-yl)thieno[2,3-d]pyrimidin-4-yl]oxy}-3-{2-[(6-phenylpyrimidin-4-yl)methoxy]phenyl}propanoic acid]	–	–	3.7e-09 M	0.049 µM
Cc1c(-c2c(-c3ccc(F)cc3)sc3ncnc(OC(Cc4ccccc4OCc4ccnn4CCC(C)C)C(=O)O)c23)ccc(OCCN2CCN(C)CC2)c1Cl [Example 82, (2R)-2-{[(5Sa)-5-{3-chloro-2-methyl-4-[2-(4-methylpiperazin-1-yl)ethoxy]phenyl}-6-(4-fluorophenyl)thieno[2,3-d]pyrimidin-4-yl]oxy}-3-(2-{[1-(3-methylbutyl)-1H-pyrazol-5-yl]methoxy}phenyl)propanoic acid]	0.078 µM	–	5.1e-09 M	–
CCCCCn1nccc1C(C)Oc1ccccc1CC(Oc1ncnc2sc(-c3ccc(F)cc3)c(-c3ccc(OCCN4CCN(C)CC4)c(Cl)c3C)c12)C(=O)O (single isomer, unassigned) [Example 5, (2R)-2-{[(5Sa)-5-{3-chloro-2-methyl-4-[2-(4-methylpiperazin-1-yl)ethoxy]phenyl}-6-(4-fluorophenyl)thieno[2,3-d]pyrimidin-4-yl]oxy}-3-{2-[(1R or S)-1-(1-pentyl-1H-pyrazol-5-yl)ethoxy]phenyl}propanoic acid]	0.418 µM	–	6.2e-09 M	–
Cc1c(-c2c(-c3ccc(F)o3)sc3ncnc(OC(Cc4ccccc4OCc4ccnc(C(F)(F)F)n4)C(=O)O)c23)ccc(OCCN(C)C)c1Cl [Example 201, (2R)-2-{[(5Sa)-5-{3-chloro-4-[2-(dimethylamino)ethoxy]-2-methylphenyl}-6-(5-fluorofuran-2-yl)thieno[2,3-d]pyrimidin-4-yl]oxy}-3-(2-{[2-(trifluoromethyl)pyrimidin-4-yl]methoxy}phenyl)propanoic acid]	0.027 µM	–	5.8e-09 M	–
Cc1c(-c2c(-c3ccc(F)o3)sc3ncnc(OC(Cc4ccccc4OCC(=O)NC4CCCC4)C(=O)O)c23)ccc(OCCN2CCN(C)CC2)c1Cl [Example 152, (2R)-2-{[(5Sa)-5-{3-chloro-2-methyl-4-[2-(4-methylpiperazin-1-yl)ethoxy]phenyl}-6-(5-fluorofuran-2-yl)thieno[2,3-d]pyrimidin-4-yl]oxy}-3-{2-[2-(cyclopentylamino)-2-oxoethoxy]phenyl}propanoic acid]	0.19 µM	–	9.9e-09 M	–
Cc1c(-c2c(-c3ccc(F)cc3)sc3ncnc(OC(Cc4ccccc4OCc4ccnn4C4CCOCC4)C(=O)O)c23)ccc(OCCN2CCN(C)CC2)c1Cl [Example 75, (2R)-2-{[(5Sa)-5-{3-chloro-2-methyl-4-[2-(4-methylpiperazin-1-yl)ethoxy]phenyl}-6-(4-fluorophenyl)thieno[2,3-d]pyrimidin-4-yl]oxy}-3-(2-{[1-(tetrahydro-2H-pyran-4-yl)-1H-pyrazol-5-yl]methoxy}phenyl)propanoic acid]	0.11 µM	–	4e-09 M	–
Cc1ncc(COc2ccccc2CC(Oc2ncnc3sc(-c4ccco4)c(-c4ccc(OCCN5CCN(C)CC5)c(Cl)c4C)c23)C(=O)O)cn1 [Example 271, (2R)-2-{[(5Sa)-5-{3-chloro-2-methyl-4-[2-(4-methylpiperazin-1-yl)ethoxy]phenyl}-6-(furan-2-yl)thieno[2,3-d]pyrimidin-4-yl]oxy}-3-{2-[(2-methylpyrimidin-5-yl)methoxy]phenyl}propanoic acid]	0.197 µM	–	1.6e-08 M	–
